Assay results as given in US20130017197A1, “STABILIZED ANTIBODY PREPARATIONS AND USES THEREOF” (UNIVERSITE DE GENEVE, priority 2010, published 2013).

What was measured:
Format in all cases: physicochemical
bevacizumab = assay: Stability of dialysed, pre-stressed bevacizumab alone and with AMP: percentage of monomers by AFFF-MALS; conditions: for percentage of monomers: pH 7.0
Procedure: A 50 mM phosphate buffer pH 7.0 was used. The buffer choice was based on a pH range and buffer capacity that is tolerated physiologically and that is acceptable for the stability of antibodies. […] Samples were analyzed directly after preparation (t0) and after 7, 14 and 28 days. The aggregation state of the antibodies was measured by multi-angle light scattering (MALS) after separation by asymmetrical flow field-flow fractionation (AFFF). […] Data were collected and analyzed with Astra software (Wyatt Technology Europe GmbH, Dernbach, Germany). The aggregation state was expressed as the percentage of monomers versus time.

Avastin® (bevacizumab) [1] = assay: Effect of AMP on the unmodified commercial bevacizumab formulation (Avastin®): monomers by AFFF-MALS; conditions: 40° C.; for stabilization of the antibody (increase in the amount of monomers) versus Avastin® alone: p<0.05
Procedure: (§1) All samples were stored at a temperature of 40° C. during 28 days. Samples were analyzed directly after preparation (t0) and after 7, 14 and 28 days. The aggregation state of the antibodies was measured by multi-angle light scattering (MALS) after separation by asymmetrical flow field-flow fractionation (AFFF). […] Data were collected and analyzed with Astra software (Wyatt Technology Europe GmbH, Dernbach, Germany). The aggregation state was expressed as the percentage of monomers versus time.
All samples are stored at a temperature of 40° C. for 28 days and stability is measured as described in Example 1 and compared to a sample of Avastin® alone stored under the same conditions.

Avastin® (bevacizumab) [2] = assay: Stability of pre-stressed Avastin® dialysed into PBS pH 7.0, with ATP or GMP: monomers by AFFF-MALS; conditions: for stabilization of Avastin® across molar ratios: ratios 1:1, 1:10, 1:100, 40° C.
Procedure: as §1, with “Samples were analyzed directly after preparation (t0) and after 7, 14 and 28 days.” left out
After pre-stressing, Avastin® samples are combined with either ATP or GMP at three Avastin®: compound of formula (I) molar ratios (1:1, 1:10 and 1:100). All samples are stored at a temperature of 40° C. for 28 days and stability is measured as described in Example 1 and compared to a sample of Avastin® alone stored under the same conditions. For GMP, a dilution of GMP was made in PBS pH 7.0 and pH was re-adjusted to pH 7.0 before the combination with Avastin® to prevent the risk of higher order aggregates caused by the addition of NaOH directly to the antibody formulation.

[3] = molar ratio 1:1, 1 day at 40° C. (t1)
[4] = molar ratio 1:10, 1 day at 40° C. (t1)
[5] = molar ratio 1:100, 1 day at 40° C. (t1)

Row | increase in the proportion of the antibody present in the monomer form (bevacizumab; AMP added to a liquid formulation containing already formed antibody aggregates, general statement) | percentage of monomers (bevacizumab; bevacizumab 25 mg/ml with AMP (read as molar ratio 1:153), 14 days at 40° C., n=3) | percentage of monomers (bevacizumab; bevacizumab:AMP molar ratio 1:1.53, 14 days at 40° C.) | percentage of monomers (bevacizumab; bevacizumab:AMP molar ratio 1:1.53, 28 days at 40° C., n=3) | percentage of monomers (bevacizumab; bevacizumab:AMP molar ratio 1:15.3, 14 days at 40° C.) | percentage of monomers (bevacizumab; bevacizumab:AMP molar ratio 1:15.3, 28 days at 40° C., n=3) | percentage of monomers (bevacizumab; bevacizumab:AMP molar ratio 1:153, 28 days at 40° C., n=3) | stabilization compared to the other molar ratios (Avastin® (bevacizumab) [1]; Avastin®:AMP 1:10 versus 1:1 and 1:100) | stabilization of the antibody (increase in the amount of monomers) versus Avastin® alone (Avastin® (bevacizumab) [1]; Avastin®:AMP molar ratio 1:10, t1, t14 and t28) | stabilization of the antibody (increase in the amount of monomers) versus Avastin® alone (Avastin® (bevacizumab) [1]; Avastin®:AMP molar ratio 1:100, only t14 and t28) | stabilizing properties in comparison of excipients (Avastin® (bevacizumab) [2]; after 28 days of storage at 40° C., ratio not specified) | stabilization of Avastin® across molar ratios (Avastin® (bevacizumab) [2]; all timepoints (1:100 most effective, then 1:10, then 1:1)) | Structure (SMILES) | effect on antibody stability versus Avastin® alone (Avastin® (bevacizumab) [2]; [3]) | effect on antibody stability versus Avastin® alone (Avastin® (bevacizumab) [2]; molar ratio 1:1, 28 days at 40° C. (t28)) | effect on antibody stability versus Avastin® alone (Avastin® (bevacizumab) [2]; [4]) | effect on antibody stability versus Avastin® alone (Avastin® (bevacizumab) [2]; molar ratio 1:10, 28 days at 40° C. (t28)) | effect on antibody stability versus Avastin® alone (Avastin® (bevacizumab) [2]; [5]) | effect on antibody stability versus Avastin® alone (Avastin® (bevacizumab) [2]; molar ratio 1:100, 28 days at 40° C. (t28)) | higher order aggregates (Avastin® (bevacizumab) [2]; molar ratio 1:100, 28 days at 40° C., probably due to pH adjustment) | stabilization of Avastin® across molar ratios (Avastin® (bevacizumab) [2]; up to 14 days)
1 | 10% to 30 | higher than 94% | higher than 80% | higher than 76% | higher than 80% | higher than 76% | around 90% | better stabilization | significant stabilization | significant stabilization |  |  | Nc1ncnc2c1ncn2[C@@H]1O[C@H](COP(=O)(O)O)[C@@H](O)[C@H]1O [AMP, adenosine 5′-monophosphate] |  |  |  |  |  |  |  | 
2 |  |  |  |  |  |  |  |  |  |  |  |  | Nc1ncnc2c1ncn2[C@@H]1O[C@H](COP(=O)(O)OP(=O)(O)OP(=O)(O)O)[C@@H](O)[C@H]1O [ATP, adenosine 5′-triphosphate] | stabilizing effect | no significant difference | stabilizing effect | no significant difference | stabilizing effect | significant stabilization | small percentage of higher order aggregates | concentration dependent stabilization
3 |  |  |  |  |  |  |  |  |  |  | most distinct stabilizing properties | concentration dependent stabilization | Nc1nc2c(ncn2[C@@H]2O[C@H](COP(=O)(O)O)[C@@H](O)[C@H]2O)c(=O)[nH]1 [GMP, guanosine 5′-monophosphate] | destabilizing |  | destabilizing |  | ability to stabilize the antibody |  |  | 
